pIC50: −log10 of the molar value. Read-outs that look alike come from different tables or passages of the source.
Columns and labels:
HepG2 cells = test: Cytotoxicity in HepG2 cells (intracellular ATP, ATPlite, 48 h); assay type: cell-based, human; conditions: IC50 HepG2 divided by IC50 P. falciparum gametocytes
[1] = as above; assay type: cell-based, human; conditions: human, HepG2 cells
[2] = tested on: P. falciparum asexual stages; conditions: TCAMS data, cited from earlier work; for pIC50: asexual stages, read-out: IC50 asexual
[3] = tested on: P. falciparum stage V gametocytes; test: Gametocytocidal ATP bioluminescence assay (single point 5 μM and 1 μM, dose-response); assay type: cell-based, Plasmodium falciparum; conditions: for Ratio IC50 HepG2/IC50 P. falciparum: IC50 HepG2 divided by IC50 P. falciparum gametocytes; for IC50: Plasmodium falciparum, P. falciparum gametocytes, average, read-out: IC50 Pf Gametocytes average, IC50 (µM) average; for pIC50: sexual stages (gametocytes), dose-response, read-out: IC50 sexual
Method: Purified stage IV-V gametocytes were obtained as previously described [10]. Single point ATP bioluminescence assay and dose–response of positive hits was determined in accordance with the previously published protocol [10].

[4] = IC50 per ratio column head, unit inferred, read-out: Cytotoxicity in HepG2

Row | Structure (SMILES) | Ratio IC50 HepG2/IC50 P. falciparum (HepG2 cells) | IC50 at 48 h [1, 4] | pIC50 [2] | Ratio IC50 HepG2/IC50 P. falciparum [3] | IC50 [3] | pIC50 [3] | IC50 at 48 h ([1]; HepG2, 48 h exposure, intracellular ATP, read-out: IC50 (μM) Cytotoxicity HepG2) | IC50 ([2]; P. falciparum asexual stages, read-out: IC50 (µM) Pf asexual stages)
1 | N=C(N=C(NCCCCCCNC(=NC(=N)NCc1ccc(Cl)c(Cl)c1)N1CCCCC1)N1CCCCC1)NCc1ccc(Cl)c(Cl)c1 [TCMDC-131816] | >68 | > 25 µM | 6.25 | >68 | 0.37 µM | 6.44 | – | –
2 | CCN(CC)C(=NCCCCCCN=C(NC(=N)c1ccc(Cl)cc1)N(CC)CC)NC(=N)c1ccc(Cl)cc1 [TCMDC-131806] | 52 | 43.6 µM | 6.42 | 52 | 0.84 µM | – | – | –
3 | FC(F)(F)c1ccc2[nH]c(-c3ccc(-c4cccc(CNCCN5CCNCC5)c4)cc3)nc2c1 [TCMDC-132864] | 16 | 17.5 µM | 5.99 | 16 | 1.08 µM | – | 18 µM | 1.03 µM
4 | NCc1ccc(CNCc2cccc(-c3ccc(-c4nc5cc(C(F)(F)F)ccc5[nH]4)cc3)c2)cc1 [TCMDC-132811] | 28 | 24.3 µM | 6.58 | 28 | 0.86 µM | 6.07 | – | –
5 | c1ccc(CN2CCN(CCCCNc3c4ccccc4nc4ccccc34)CC2)cc1 [TCMDC-138009] | – | 9.92 µM | 6.93 | 12 | 0.79 µM | 6.10 | – | –
6 | COc1cc2nc(NCCCN3CCCCC3)nc(NCc3ccccc3)c2cc1OC [TCMDC-132012] | – | 8.94 µM | 6.00 | 30 | 0.3 µM | 6.53 | – | –
7 | COc1cc(NCCCNCc2cn(Cc3cc(Br)cc(Br)c3)c3ccccc23)nc2ccccc12 [TCMDC-140677] | – | 6.13 µM | 6.73 | 10 | 0.59 µM | – | – | –
8 | CC(C)(C)c1ccc(CN2CCC(CNC(=O)c3cc(-c4ccccc4Cl)cs3)C2)cc1 (stereo not shown) [TCMDC-134445] | – | 8.3 µM | 6.07 | 12 | 0.69 µM | – | – | –
9 | CC(C)(C)c1ccc(CN2CCC(CNC(=O)c3cc(-c4cccc(C(F)(F)F)c4)cs3)C2)cc1 (stereo not shown) [TCMDC-134442] | – | 4.9 µM | 5.99 | 12 | 0.42 µM | – | – | –
10 | S=C(NN=Cc1ccccn1)NC1CC2C=CC1C2 (stereo not shown) [TCMDC-125752] | – | 0.7 µM | 6.14 | 6 | 0.11 µM | 6.95 | – | –
11 | CC(C)(C)c1ccc(CN2CCC(CNC(=O)c3cc(-c4ccccc4F)cs3)C2)cc1 (stereo not shown) [TCMDC-134443] | – | 7.4 µM | 6.25 | 22 | 0.34 µM | – | – | –
12 | COc1ccc2c(c1)CC(C)(C)NC2CCCCCCCCC1NC(C)(C)Cc2cc(OC)ccc21 (stereo not shown) [TCMDC-137935] | – | 5.32 µM | 5.89 | 7 | 0.79 µM | – | – | –
13 | CC(CNC(=N)c1cccc(C(=N)NCC(C)Oc2cccc(C3CCCCC3)c2)n1)Oc1cccc(C2CCCCC2)c1.Cl (stereo not shown) [TCMDC-137455] | – | 3.53 µM | 6.04 | 15 | 0.24 µM | – | – | –
14 | CC(C)(C)c1ccc(CN2CCC(CNC(=O)c3cc(-c4ccccc4C(F)(F)F)cs3)C2)cc1 (stereo not shown) [TCMDC-134441] | – | 6.4 µM | 5.91 | 21 | 0.31 µM | 6.52 | – | –
15 | CCCCCCCCN1CCN(CCCCCCNc2c3ccccc3nc3ccccc23)CC1 [TCMDC-138015] | – | 3.1 µM | 6.79 | 12 | 0.25 µM | – | – | –
16 | COc1cccc(-c2csc(C(=O)NCC3CCN(Cc4ccc(C(C)(C)C)cc4)C3)c2)c1 (stereo not shown) [TCMDC-134447] | – | 9.5 µM | 5.93 | 41 | 0.23 µM | – | – | –

Reference: paper PMC4552634, “A New Set of Chemical Starting Points with Plasmodium falciparum Transmission-Blocking Potential for Antimalarial Drug Discovery” (PLoS ONE, 2015)
